The results in this text go back to patent publication US10513519B2, “Solid forms of (1S,4S)-4-(2-(((3S,4R)-3-fluorotetrahydro-2H-pyran-4-yl)amino)-8-((2,4,6-trichlorophenyl)amino)-9H-purin-9-yl)-1-methylcyclohexane-1-carboxamide and methods of their use” (Signal Pharmaceuticals, LLC, priority 2016, dated 2019).

Data set [1] in a line: Dynamic vapor sorption (hygroscopicity). The data set is classed as physicochemical. Particulars: for DVS wt gain: @ 95% RH, Compound 1 HCl salt forms; for hygroscopicity (in words): DVS; for water uptake: between 0 and 90% RH; for DVS water uptake: up to 90% RH, Compound 1 citrate salt polymorphs. On the procedure:
Dynamic vapor sorption (DVS) was measured using DVS advantage (Surface Measurement Systems Ltd). The samples were tested under isotherm (25° C.) at a targeted RH of 0 to 95% full cycle in step mode. For an isotherm test, the chamber temperature was maintained by a water bath at constant 25.0±1.0° C. The relative humidity in the sample chamber was generated by combining different flows of wet and dry nitrogen with variable flow rates. The analysis was performed in 10% RH increments. Sampling rate was 1 sec save data rate is 20 sec. The dm/dt (%) value was set at 0.001 with a dm/dt window of 5 min., a minimum stability duration time of 10 min, and a maximum stage time of 180 min. The sample's equilibrium weight corresponding to each RH was recorded. A sorption isotherm was obtained by plotting equilibrium moisture content versus RH.
Hygroscopicity was determined on a Surface Measurement Systems DVS. A sample size of 5-20 mg was loaded into the DVS instrument sample pan and the sample was analyzed on a DVS automated sorption analyzer at room temperature. The relative humidity was increased from 0% to 90% RH at 10% RH step, then decreased in a similar manner to accomplish a full adsorption/desorption cycle.

A short description of data set [2]: Form conversion / form transfer experiments (humidity, drying, competitive slurries). The format is physicochemical. The source says:
The thermodynamic relationship between the two forms was explored through form conversion experiments (Table 31).

Data set [3] is described as follows: Approximate solubility in various solvents at room temperature. The format is physicochemical. On the procedure: The resulting mixture was agitated for about 1 day at room temperature. If all of the solids appeared to be dissolved by visual inspection, the estimated solubility was calculated based on the total volume of solvent used to give a complete solution. If solids were present, a known volume of filtrate was evaporated to dryness and the weight of the residue was measured to estimate the solubility.
The resulting mixture was agitated for 1 day at room temperature. If all of the solids appeared to be dissolved by visual inspection, the estimated solubility was calculated based on the total volume of solvent used to give a complete solution. If solids were present, a known volume of filtrate was evaporated to dryness and the weight of the residue was measured to estimate the solubility.

Data set [4] is described as follows: Compression test (2000-psi pressure). The conditions noted are these: 2000-psi pressure for about 1 minute. The format is physicochemical.
The nature of data set [5]: Solubility in biorelevant media (FeSSIF, FaSSIF, FaSSGF, FeSSGF).
Data set [6] can be described thus: Solid state stability of salt forms and free base. The format is physicochemical.
The nature of data set [7]: Solubility of salt forms and free base in water, SGF, SIF and 0.5% HPMC in […] Tween 80.
For data set [8], the system named is TEAD reporter (8×GTIIC-luciferase) in W138 VA13 cells. The data set is described as follows: TEAD reporter assay. The format is cell-based. Particulars: 24 or 72 hours. The method, then:
TEAD reporter activity was analyzed using W138 VA13 cells stably expressing a YAP/TAZ responsive synthetic promoter driving luciferase expression (8×GTIIC-luciferase). 10,000 cells per well were seeded on a white-walled 96-well plate and left overnight. After 16-20 hours, cells were treated with compound and TEAD reporter activity was measured 24 or 72 hours later using Bright Glo luciferase assay (Promega) according to the manufacturer's instructions. This assay was performed 3 times for Compound 1 and twice for Trametinib.
(Reporter assays use an easily measured gene product as a stand-in for the process of interest.)

Data set [9] is described as follows: Approximate solubility of HCl salt starting material in selected organic solvents. The data set is classed as physicochemical. The conditions noted are these: room temperature. On the procedure: Solubility of the starting mater in selected organic solvents was determined by mixing with selected solvents at room temperature.

Regarding `CC1(C(N)=O)CCC(n2c(Nc3c(Cl)cc(Cl)cc3Cl)nc3cnc(NC4CCOCC4F)nc32)CC1.Cl.O` (stereo not drawn) [Form 7], the DVS wt gain in [1] is on record as about 4.5% wt.

Take `CC1(C(N)=O)CCC(n2c(Nc3c(Cl)cc(Cl)cc3Cl)nc3cnc(NC4CCOCC4F)nc32)CC1.Cl.O` (stereo not drawn) [Form 8]: the DVS wt gain in [1] is about 2% wt.

Usually solubility stands for how much of the substance goes into solution per volume. Take `C[C@]1(C(N)=O)CC[C@@H](n2c(Nc3c(Cl)cc(Cl)cc3Cl)nc3cnc(N[C@@H]4CCOC[C@H]4F)nc32)CC1` [Form A]: the “Resulting Form” value in data set [2] (no solvent, RT and 0% RH 6 days) is reported as “B + A”. The weight change entry in data set [1] (between 10 and 30% RH) is “over 3%”. Besides, in [1] (between 30-90% RH), the additional water uptake result was “approximately 1.4 wt %”. For the same compound, the “DVS water uptake up to 90 % RH” value in data set [1] (listed as A) is 4.7 wt % water. Also, the solubility at 1 day in data set [3] (1,4-dioxane, organic solvent or mixture, thermodynamic from solid, 1,4-dioxane) is over 50 mg/mL; in data set [3] (2-MeTHF, organic solvent or mixture, thermodynamic from solid) it was over 50 mg/mL; in [3] (DCM, organic solvent or mixture, thermodynamic from solid), over 50 mg/mL; in data set [3] (EtOAc, organic solvent or mixture, thermodynamic from solid), over 100 mg/mL; in data set [3] (EtOH, organic solvent or mixture, thermodynamic from solid) it was over 20 mg/mL; in data set [3] (EtOH/water (1:1), aqueous with cosolvent or surfactant or cyclodextrin, thermodynamic from solid, EtOH/water (1:1)), over 3 mg/mL. The solubility at 1 day is over 10 mg/mL in data set [3] (IPA, organic solvent or mixture, thermodynamic from solid); over 50 mg/mL in data set [3] (IPAc, organic solvent or mixture, thermodynamic from solid); over 50 mg/mL in data set [3] (MEK, organic solvent or mixture, thermodynamic from solid); over 50 mg/mL in [3] (MIBK, organic solvent or mixture, thermodynamic from solid); over 20 mg/mL in data set [3] (MTBE, organic solvent or mixture, thermodynamic from solid); over 3 mg/mL in data set [3] (MeCN, organic solvent or mixture, thermodynamic from solid). The solubility at 1 day in [3] (MeCN/water (1:1), aqueous with cosolvent or surfactant or cyclodextrin, thermodynamic from solid, MeCN/water (1:1)) is over 50 mg/mL; in data set [3] (MeOAc, organic solvent or mixture, thermodynamic from solid), over 100 mg/mL; in [3] (MeOH, organic solvent or mixture, thermodynamic from solid) it was over 50 mg/mL; in [3] (THF, organic solvent or mixture, thermodynamic from solid) it was over 100 mg/mL; in data set [3] (THF/water (1:1), aqueous with cosolvent or surfactant or cyclodextrin, thermodynamic from solid, THF/water (1:1)) it was over 50 mg/mL; in data set [3] (acetone, organic solvent or mixture, thermodynamic from solid), over 100 mg/mL. For the same compound, the solubility at 1 day in data set [3] (heptane, organic solvent or mixture, thermodynamic from solid) is under 1 mg/mL; in data set [3] (n-BuOH, organic solvent or mixture, thermodynamic from solid), over 20 mg/mL; in data set [3] (toluene, organic solvent or mixture, thermodynamic from solid), over 10 mg/mL; in [3] (water, thermodynamic from solid) it was under 1 mg/mL.

`CC1(C(N)=O)CCC(n2c(Nc3c(Cl)cc(Cl)cc3Cl)nc3cnc(NC4CCOCC4F)nc32)CC1.O=C(O)CC(O)(CC(=O)O)C(=O)O` (stereo not drawn) [Form Y]: in data set [4], the “solid form after compression” value is “still Form Y”. Moreover, in data set [1], the “hygroscopicity (in words)” value is given as “slightly hygroscopic” and the water uptake result was “about 2.1 % w/w”.

Turning to `CC1(C(N)=O)CCC(n2c(Nc3c(Cl)cc(Cl)cc3Cl)nc3cnc(NC4CCOCC4F)nc32)CC1.O=C(O)CC(O)(CC(=O)O)C(=O)O` (stereo not drawn) [Form Z], the “solid form after compression” value in data set [4] is “still Form Z”. Further, in [1], the “hygroscopicity (in words)” value is reported as “slightly hygroscopic” and the water uptake result was “about 1.6 % w/w”.

As to `CC1(C(N)=O)CCC(n2c(Nc3c(Cl)cc(Cl)cc3Cl)nc3cnc(NC4CCOCC4F)nc32)CC1.Cl.O` (stereo not drawn) [HCl Salt], the “hygroscopicity with respect to monohydrate” value in data set [1] (0-95% RH) is recorded as under 1.0%. Also, the “hygroscopicity (in words)” value in data set [1] is reported as “low hygroscopicity”. In addition, in data set [1] (from 5% RH to dry), the remaining water released is about 2.8 % wt. Moreover, the additional moisture sorption in data set [1] (from 25 to 95% RH) was about 1.7%. Also, the “loss of water content during desorption cycle” value in [1] (from 95 down to 5% RH) is given as about 1.5%. Further, the pH in data set [5] (FaSSGF) is given as 1.82; in data set [5] (FaSSIF) it was 6.12; in data set [5] (FeSSGF) it was 5.66; in data set [5] (FeSSIF) it was 4.85. Also, the “solid state stability (in words)” value in [6] is “chemically and physically stable in solid state”. In addition, the “Chemical (40° C./75% RH) RRT = 2.2” value in data set [6] (40° C./75% RH) was found to be 0.02%. The “Physical (40° C./75% RH)” value in data set [6] (40° C./75% RH) is “Stable”. For the same compound, the “Chemical (60° C.) RRT2.2” value in [6] (60° C.) is 0.05%. Also, in [6] (60° C.), the “Physical (60° C.)” value was “Stable”. The pH at final is 3.06 in data set [7] (0.5% HPMC/[…] Tween80), 1.17 in [7] (SGF), 7.22 in data set [7] (SIF) and 3.65 in data set [7] (Water).

For the compound `CC(=O)Nc1cccc(-n2c(=O)n(C3CC3)c(=O)c3c(Nc4ccc(I)cc4F)n(C)c(=O)c(C)c32)c1` [Trametinib, reference compound], the “inhibition of TEAD reporter activity” value in data set [8] was “did not inhibit”.

As for `CC1(C(N)=O)CCC(n2c(Nc3c(Cl)cc(Cl)cc3Cl)nc3cnc(NC4CCOCC4F)nc32)CC1.O=C(O)CC(O)(CC(=O)O)C(=O)O` (stereo not drawn) [Y + Z], the “Resulting Form(s)” value in data set [2] (Slurry in EtOAc, RT, 5 days) is given as “Y + Z”; in data set [2] (Slurry in EtOAc, RT, 10 days) it was “Y + Z”; in [2] (Slurry in Toluene, 50° C., 4 days) it was “Z + Y”; in data set [2] (Slurry in Toluene, RT, 5 days), “Z + Y”; in data set [2] (Slurry in Toluene, RT, 10 days), “Z + Y”.

On to `CC1(C(N)=O)CCC(n2c(Nc3c(Cl)cc(Cl)cc3Cl)nc3cnc(NC4CCOCC4F)nc32)CC1.O=C(O)CC(O)(CC(=O)O)C(=O)O` (stereo not drawn) [Y], for which the DVS water uptake in data set [1] is reported as about 2.1 wt % water.

For the compound `CC1(C(N)=O)CCC(n2c(Nc3c(Cl)cc(Cl)cc3Cl)nc3cnc(NC4CCOCC4F)nc32)CC1.O=C(O)CC(O)(CC(=O)O)C(=O)O` (stereo not drawn) [Z], the DVS water uptake in [1] is reported as about 1.6 wt % water.

As to `C[C@]1(C(N)=O)CC[C@@H](n2c(Nc3c(Cl)cc(Cl)cc3Cl)nc3cnc(N[C@@H]4CCOC[C@H]4F)nc32)CC1` [amorphous], the reversible weight change entry in [1] (between 10 and 50% RH) is “about 3.5%”. For the same compound, the “DVS water uptake up to 90 % RH” value in data set [1] is 6.9 wt % water.

Take `CC1(C(N)=O)CCC(n2c(Nc3c(Cl)cc(Cl)cc3Cl)nc3cnc(NC4CCOCC4F)nc32)CC1.Cl` (stereo not drawn) [anhydrate/amorphous starting material]: the “Approximate Solubility” value in data set [9] (2-MeTHF) is “S < 0.9 mg/mL”; in data set [9] (DCM), “S < 1.6 mg/mL”; in data set [9] (DMAc) it was “S > 18 mg/mL”; in data set [9] (DMSO) it was “S > 22 mg/mL”; in data set [9] (EtOAc) it was “S < 1.5 mg/mL”; in data set [9] (EtOH), “S > 28 mg/mL”. Also, the “Approximate Solubility” value in [9] (H2O) is “S < 1.0 mg/mL”; in [9] (Heptane), “S < 1.7 mg/mL”; in data set [9] (IPAc), “S < 1.3 mg/mL”; in data set [9] (MIBK), “S < 1.5 mg/mL”; in data set [9] (MTBE), “S < 1.0 mg/mL”; in [9] (MeOAc), “S < 0.9 mg/mL”. The figures for the “Approximate Solubility” value in [9] (MeOH), in [9] (NMP) and in data set [9] (Toluene) were “S > 31 mg/mL”, “S > 24 mg/mL” and “S < 1.4 mg/mL”, respectively.

Take `CC1(C(N)=O)CCC(n2c(Nc3c(Cl)cc(Cl)cc3Cl)nc3cnc(NC4CCOCC4F)nc32)CC1.Cl` (stereo not drawn) [starting material HCl Salt Form]: in [1], the DVS wt gain is on record as about 3.6% wt and the “hygroscopicity (in words)” value was “moderately hygroscopic”. The compound further gave a mass change in data set [1] (from 0% RH to 95% RH at 25° C.) of 3.6 wt %.

Consider Citrate, for which the “hygroscopicity (in words)” value in data set [1] is given as “low hygroscopicity”.
